≈ marks a conversion by molar mass, not a printed value.
Key:
[1] = Solubility of compound A in aqueous buffer; assay type: physicochemical; conditions: pH 1.2, aqueous buffer, thermodynamic from solid, pH of 1.2 to 7.4, 37 °C/24 h
Excerpt: The starting material of compound A is an anhydrous crystal powder with slight hygroscopicity, which is almost insoluble in water. […] For such drugs with poor water solubility, the dissolution of the drugs in gastrointestinal fluids is the rate-limiting step of their bioavailability, and poor water solubility will necessarily lead to low dissolution and thus lower bioavailability. Therefore, if the bioavailability of the drug is to be improved, the dosage form, formula composition, and process need to be specially designed to change the dispersion state of the drug and promote its dissolution in the gastrointestinal tract.

[2] = Solubility of compound A in various solvents (standard solubility determination); assay type: physicochemical; conditions: organic solvent or mixture, 25 °C
Method: The solubility (25 °C) of the active ingredient compound A in various solvents was determined using a standard solubility determination method well known in the art.

solubility at 24 h [1]: 0.08 to 0.39 µg/mL (≈ 0.000152 to 0.000741 mM) | solubility ([2]; Acetonitrile): 1.2 mg/mL (≈ 2.28 mM) | solubility ([2]; DMF): 33 mg/mL (≈ 62.7 mM) | solubility ([2]; DMSO): 33 mg/mL (≈ 62.7 mM) | solubility ([2]; Dichloromethane): 10 mg/mL (≈ 19 mM) | solubility ([2]; Ethanol): 1.1 mg/mL (≈ 2.09 mM) | solubility ([2]; Methanol: dichloromethane (1:1)): 28.5 mg/mL (≈ 54.1 mM) | solubility ([2]; Methanol: dichloromethane (1:2)): 50 mg/mL (≈ 95 mM) | solubility ([2]; Methanol: dichloromethane (1:3)): 83 mg/mL (≈ 158 mM) | solubility ([2]; Methanol: dichloromethane (1:4)): 83 mg/mL (≈ 158 mM) | solubility ([2]; Methanol: dichloromethane (1:5)): 83 mg/mL (≈ 158 mM) | solubility ([2]; Methanol: dichloromethane (2:1)): 14.3 mg/mL (≈ 27.2 mM) | solubility ([2]; Methanol: dichloromethane (3:1)): 7.7 mg/mL (≈ 14.6 mM) | solubility ([2]; Methanol): 4.3 mg/mL (≈ 8.17 mM) | solubility ([2]; N-methylpyridine): 11 mg/mL (≈ 20.9 mM) | solubility ([2]; Tetrahydrofuran): 2 mg/mL (≈ 3.8 mM) | solubility ([2]; Toluene): 3.3 mg/mL (≈ 6.27 mM)
Structure (SMILES): CC(C)N1Cc2cc(C(F)(F)F)ncc2-c2cnc(NCc3c(F)ccc4c3CCO4)n3cnc(c23)C1=O [compound A, 12-(((5-fluoro-2,3-dihydrobenzofuran-4-yl)methyl)amino)-4-isopropyl-7-(trifluoromethyl)-4,5-dihydro-3H-2,4,8,11,12a-pentaazabenzo[4,5]cycloocta[1,2,3-cd]inden-3-one]

From patent EP4725490A1, “EED INHIBITOR SOLID DISPERSION, ORAL FORMULATION COMPRISING SAME, AND PREPARATION METHOD THEREFOR” (Ascentage Pharma (Suzhou) Co., Ltd., priority 2023, dated 2024)
